Assay results taken from the supplement of paper PMC10307832.

Assays:
Experiment in all cases: relative viability (nuclei count vs DMSO), 5 days (fraction); higher = more cells survive
HCC-15 = tested on: HCC-15
Summary of the method: (§1)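 Lung cancer cell lines in 1536-well plates were dosed by pin tool the day after seeding, either with one drug alone or with a fixed anchor-drug dose plus five library-drug doses (not always all listed) in √10 steps. After 5 days, cells were fixed and their nuclei stained in one step (final 0.05% Triton X-100, 1% formaldehyde, 1 ug/ml Hoechst), then counted on 4× images. Relative viability is the nuclei count in treated wells divided by that in vehicle wells. Values are medians of duplicate plates.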

LXF-289 = tested on: LXF-289
Summary of the method: as §1

LC-2-ad = tested on: LC-2-ad
Summary of the method: as §1

NCI-H2126 = tested on: NCI-H2126
Summary of the method: as §1

HCC-78 = tested on: HCC-78
Summary of the method: as §1

NCI-H358 = tested on: NCI-H358
Summary of the method: as §1

RERF-LC-KJ = tested on: RERF-LC-KJ
Summary of the method: as §1

A-427 = tested on: A-427
Summary of the method: as §1

NCI-H1734 = tested on: NCI-H1734
Summary of the method: as §1

PC-3 [JPC-3] = tested on: PC-3 [JPC-3]
Summary of the method: as §1

SK-LU-1 = tested on: SK-LU-1
Summary of the method: as §1

HOP-62 = tested on: HOP-62
Summary of the method: as §1

NCI-H647 = tested on: NCI-H647
Summary of the method: as §1

NCI-H1792 = tested on: NCI-H1792
Summary of the method: as §1

NCI-H1915 = tested on: NCI-H1915
Summary of the method: as §1

NCI-H2228 = tested on: NCI-H2228
Summary of the method: as §1

NCI-H1755 = tested on: NCI-H1755
Summary of the method: as §1

NCI-H2347 = tested on: NCI-H2347
Summary of the method: as §1

NCI-H1975 = tested on: NCI-H1975
Summary of the method: as §1

SW 1573 = tested on: SW 1573
Summary of the method: as §1

Structure (SMILES): O=c1cc(-c2cccc3c2Sc2ccccc2S3)oc(N2CCOCC2)c1 + Cc1nc(NC(=O)N2CCC[C@H]2C(N)=O)sc1-c1ccnc(C(C)(C)C(F)(F)F)c1 [Alpelisib] (partner 2 µM)
- relative viability (HCC-15; first compound 0.08 µM): 0.896
- relative viability (HCC-15; first compound 0.253 µM): 1.05
- relative viability (HCC-15; first compound 0.8 µM): 0.89
- relative viability (HCC-15; first compound 2.53 µM): 0.797
- relative viability (HCC-15; first compound 8 µM): 0.922
- relative viability (LXF-289; first compound 0.08 µM): 1.1
- relative viability (LXF-289; first compound 0.253 µM): 1.07
- relative viability (LXF-289; first compound 0.8 µM): 1.14
- relative viability (LXF-289; first compound 2.53 µM): 1.01
- relative viability (LXF-289; first compound 8 µM): 1.07
- relative viability (LC-2-ad; first compound 0.08 µM): 0.884
- relative viability (LC-2-ad; first compound 0.253 µM): 0.908
- relative viability (LC-2-ad; first compound 0.8 µM): 0.844
- relative viability (LC-2-ad; first compound 2.53 µM): 0.806
- relative viability (LC-2-ad; first compound 8 µM): 0.75
- relative viability (NCI-H2126; first compound 0.08 µM): 0.827
- relative viability (NCI-H2126; first compound 0.253 µM): 0.822
- relative viability (NCI-H2126; first compound 0.8 µM): 0.734
- relative viability (NCI-H2126; first compound 2.53 µM): 0.739
- relative viability (NCI-H2126; first compound 8 µM): 0.735
- relative viability (HCC-78; first compound 0.08 µM): 0.355
- relative viability (HCC-78; first compound 0.253 µM): 0.319
- relative viability (HCC-78; first compound 0.8 µM): 0.305
- relative viability (HCC-78; first compound 2.53 µM): 0.307
- relative viability (HCC-78; first compound 8 µM): 0.339
- relative viability (NCI-H358; first compound 0.08 µM): 0.776
- relative viability (NCI-H358; first compound 0.253 µM): 0.824
- relative viability (NCI-H358; first compound 0.8 µM): 0.816
- relative viability (NCI-H358; first compound 2.53 µM): 0.786
- relative viability (NCI-H358; first compound 8 µM): 0.795
- relative viability (RERF-LC-KJ; first compound 0.08 µM): 0.83
- relative viability (RERF-LC-KJ; first compound 0.253 µM): 0.917
- relative viability (RERF-LC-KJ; first compound 0.8 µM): 0.824
- relative viability (RERF-LC-KJ; first compound 2.53 µM): 0.741
- relative viability (RERF-LC-KJ; first compound 8 µM): 0.939
- relative viability (A-427; first compound 0.08 µM): 1.04
- relative viability (A-427; first compound 0.253 µM): 1.04
- relative viability (A-427; first compound 0.8 µM): 1.14
- relative viability (A-427; first compound 2.53 µM): 0.987
- relative viability (A-427; first compound 8 µM): 1.05
- relative viability (NCI-H1734; first compound 0.08 µM): 0.595
- relative viability (NCI-H1734; first compound 0.253 µM): 0.841
- relative viability (NCI-H1734; first compound 0.8 µM): 0.729
- relative viability (NCI-H1734; first compound 2.53 µM): 0.662
- relative viability (NCI-H1734; first compound 8 µM): 0.706
- relative viability (PC-3 [JPC-3]; first compound 0.08 µM): 0.994
- relative viability (PC-3 [JPC-3]; first compound 0.253 µM): 1.04
- relative viability (PC-3 [JPC-3]; first compound 0.8 µM): 1.07
- relative viability (PC-3 [JPC-3]; first compound 2.53 µM): 0.958
- relative viability (PC-3 [JPC-3]; first compound 8 µM): 1.03
- relative viability (SK-LU-1; first compound 0.08 µM): 1.03
- relative viability (SK-LU-1; first compound 0.253 µM): 1.12
- relative viability (SK-LU-1; first compound 0.8 µM): 1.26
- relative viability (SK-LU-1; first compound 2.53 µM): 0.991
- relative viability (SK-LU-1; first compound 8 µM): 0.977
- relative viability (HOP-62; first compound 0.08 µM): 0.962
- relative viability (HOP-62; first compound 0.253 µM): 0.85
- relative viability (HOP-62; first compound 0.8 µM): 1.01
- relative viability (HOP-62; first compound 2.53 µM): 0.908
- relative viability (HOP-62; first compound 8 µM): 1.18
- relative viability (NCI-H647; first compound 0.08 µM): 1.4
- relative viability (NCI-H647; first compound 0.253 µM): 1.47
- relative viability (NCI-H647; first compound 0.8 µM): 1.31
- relative viability (NCI-H647; first compound 2.53 µM): 0.869
- relative viability (NCI-H647; first compound 8 µM): 0.977
- relative viability (NCI-H1792; first compound 0.253 µM): 0.722
- relative viability (NCI-H1792; first compound 0.8 µM): 0.741
- relative viability (NCI-H1792; first compound 2.53 µM): 0.674
- relative viability (NCI-H1792; first compound 8 µM): 0.712
- relative viability (NCI-H1915; first compound 0.08 µM): 1.15
- relative viability (NCI-H1915; first compound 0.253 µM): 1.12
- relative viability (NCI-H1915; first compound 0.8 µM): 1.07
- relative viability (NCI-H1915; first compound 2.53 µM): 0.994
- relative viability (NCI-H1915; first compound 8 µM): 1.11
- relative viability (NCI-H2228; first compound 0.08 µM): 0.75
- relative viability (NCI-H2228; first compound 0.253 µM): 0.846
- relative viability (NCI-H2228; first compound 0.8 µM): 0.828
- relative viability (NCI-H2228; first compound 2.53 µM): 0.561
- relative viability (NCI-H2228; first compound 8 µM): 0.737
- relative viability (NCI-H1755; first compound 0.08 µM): 0.889
- relative viability (NCI-H1755; first compound 0.253 µM): 1.22
- relative viability (NCI-H1755; first compound 0.8 µM): 0.945
- relative viability (NCI-H1755; first compound 2.53 µM): 0.925
- relative viability (NCI-H1755; first compound 8 µM): 0.964
- relative viability (NCI-H2347; first compound 0.08 µM): 1.03
- relative viability (NCI-H2347; first compound 0.253 µM): 1.14
- relative viability (NCI-H2347; first compound 0.8 µM): 1.1
- relative viability (NCI-H2347; first compound 2.53 µM): 1.11
- relative viability (NCI-H2347; first compound 8 µM): 1.16
- relative viability (NCI-H1975; first compound 0.08 µM): 0.722
- relative viability (NCI-H1975; first compound 0.253 µM): 0.786
- relative viability (NCI-H1975; first compound 0.8 µM): 0.656
- relative viability (NCI-H1975; first compound 2.53 µM): 0.498
- relative viability (NCI-H1975; first compound 8 µM): 0.452
- relative viability (SW 1573; first compound 0.08 µM): 0.719
- relative viability (SW 1573; first compound 0.253 µM): 0.785
- relative viability (SW 1573; first compound 0.8 µM): 0.667
- relative viability (SW 1573; first compound 2.53 µM): 0.803
- relative viability (SW 1573; first compound 8 µM): 0.657
